Columns and labels:
[1] = test system: tissue plasminogen activator (t-PA) release from HUVEC; experiment: t-PA release from HUVEC (ELISA); format: cell-based, human; details: 24 h, HUVEC supernatants
Protocol: The influence on tissue plasminogen activator release from HUVECs was assessed using an ELISA kit (Abcam, Cambridge, UK). HUVECs seeded at a density of 10,000 per well on 96-well plates were co-incubated with compounds 1–5 at the concentrations of 0.3 and 1.0 mM for an additional 24 h (37 °C, 5% CO2). The cell supernatants were discarded into Eppendorf tubes and preserved at −20° C until analysis. Before the tests, the samples were thawed at room temperature for 15 min, and diluted 2.5-fold with diluent in Elisa kit. The measurements of t-PA concentrations in cell supernatants were conducted according to the manufacturer’s protocol using 3,3’,5,5’-tetramethylbenzidine (TMB) as a chromogenic substrate. The concentration of t-PA in HUVEC supernatants was determined using a calibration curve (R^2 = 0.9936). The results are presented as mean ± SD, n = 6. The CV for the applied method was 7.21%.

[2] = test system: human plasma (platelet poor plasma); experiment: Basic coagulation tests: PT, INR, APTT, TT; format: biochemical; details: for TT: thrombin 3.0 UNIH/mL
Protocol: The blood was collected into vacuum tubes stuffed with 3.2% buffered sodium citrate. Platelet poor plasma (PPP) was obtained by centrifugation at 3000× g for 10 min at room temperature using a Micro 22R centrifuge (Hettich Zentrifugen, Tuttlingen, Germany). The obtained PPP was stored in small aliquots for up to one month at –30° C. Before each experiment, PPP was restored at 37 °C for 15 min. Once thawed, the PPP was not frozen again nor used for retesting.
The effects of biguanidines (1–5) on the basic coagulation parameters (PT, INR, APTT, and TT) were carried out using a CoagChrom-3003 coagulometer (Bio-Ksel, Grudziądz, Poland), according to the routine laboratory diagnostic procedure. The studies were performed in multiplicate (n = 4–7). The control samples containing distilled water and methanol (1:1) were also included.
The results are presented as mean ± standard deviation (SD). The methods were validated, and coefficients of variability for all experiments were calculated (PT: CV = 10.25%, APTT: CV = 8.55%, TT: CV = 4.87%). The reference values for each test are as follows: PT: 9.7–14.6 s; APTT: 26.7–40.0 s; TT: 14.0–18.0 s for 3.0 UNIH/mL of thrombin.

[3] = test system: clot formation and fibrinolysis in human citrate plasma; experiment: Clot formation and fibrinolysis test (CL-test); format: biochemical
Protocol: The effects of the […] on overall hemostasis potential by means of clot formation and fibrinolysis test (CL-test) were further tested based on the continuous measurement of the changes in optical transmittance over time, as described by Kostka et al. and Sikora et al.. These experiments were conducted using 470 µL of three-fold diluted human citrate plasma, 10 µL of the tested compounds, and 10 µL t-PA (final concentration in a sample 220 ng/mL). The clot formation was triggered by thrombin (10 µL, final concentration 0.5 IU/mL). The clot formation and lysis curves were determined at a wavelength of 405 nm with a spectrophotometer (Cecil CE 2021; London, UK) with circulating thermostated water (37 °C) and a Model 300 Electronic Stirrer (Rank Brothers Ltd., Cambridge, UK). The experiments were conducted in multiplicate (n = 5–7), and the results are presented as mean ± SD.
The received graphs were analyzed using dedicated software to determine the kinetic parameters of clot formation, stabilization, and fibrinolysis. The following parameters of clot formation were determined: Tt—thrombin time (s), Fmax—maximum clotting (%T), Tf—plasma clotting time (s), Fvo—initial plasma clotting velocity (%T/min), Sr—area under the clot formation curve (%Txmin). The parameters of the clot stabilization phase comprised Tc—clot stabilization time (s), Sc—area under the curve of stable clot formation (%Txmin). The parameters of fibrinolysis comprised Lmax—maximum lysis (%T), Tl—fibrinolysis time (s), Lvo—initial clot fibrinolysis velocity (%T/min), Sf—area under the fibrinolysis curve (%Txmin). Additionally, the overall potential of clot formation and fibrinolysis (CLAUC, (%Txmin)) and total time of the process of clot formation and fibrinolysis (T, (s)) were also estimated.

With `CCCCCCCCS(=O)(=O)NC(N)=NC(=N)N(C)C` [Compound 2] the “Released t-PA” value ([1]; 0.3 mM) was 1633.9 ± 263.2 pg/mL, the “Released t-PA” value ([1]; 1.0 mM) was 990.0 ± 158.5 pg/mL and the APTT ([2]; 0.006 mM) was 30.79 ± 5.87 s. The INR ([2]; 0.006 mM) was 1.07 ± 0.15, the PT ([2]; 0.006 mM) was 13.30 ± 1.81 s and the TT ([2]; 0.006 mM) was 14.14 ± 0.59 s. The APTT ([2]; 0.06 mM) was 31.33 ± 5.53 s, the INR ([2]; 0.06 mM) was 1.03 ± 0.10 and the PT ([2]; 0.06 mM) was 12.82 ± 1.33 s. The TT ([2]; 0.06 mM) was 13.86 ± 0.80 s, the APTT ([2]; 0.3 mM) was 33.49 ± 4.85 s and the INR ([2]; 0.3 mM) was 1.05 ± 0.11. For the same compound, the PT ([2]; 0.3 mM) was 13.10 ± 1.37 s, the TT ([2]; 0.3 mM) was 13.48 ± 2.10 s and the APTT ([2]; 0.6 mM) was 33.46 ± 5.59 s. For the same compound, the INR ([2]; 0.6 mM) was 1.04 ± 0.11, the PT ([2]; 0.6 mM) was 12.96 ± 1.42 s and the TT ([2]; 0.6 mM) was 14.40 ± 2.35 s. It also gave an APTT ([2]; 1.5 mM) of 34.83 ± 6.22 s, an INR ([2]; 1.5 mM) of 1.06 ± 0.10 and a PT ([2]; 1.5 mM) of 13.20 ± 1.23 s. The TT ([2]; 1.5 mM) was 16.32 ± 2.21 s, the “Fmax—maximum clotting” value ([3]; 0.06 mM) was 66.77 ± 5.68 %T and the “Fvo—initial plasma clotting velocity” value ([3]; 0.06 mM) was 203.43 ± 22.00 %T/min. For the same compound, the “Lmax—maximum lysis” value ([3]; 0.06 mM) was 67.40 ± 5.38 %T, the “Lvo—initial clot fibrinolysis velocity” value ([3]; 0.06 mM) was 22.29 ± 4.30 %T/min and the “Sc—area under the curve of a stable clot formation” value (“Sc—area under the curve” below) ([3]; 0.06 mM) was 323.20 ± 94.05 %T x min. For the same compound, the “Sf—area under the clot formation curve” value ([3]; 0.06 mM) was 44.40 ± 9.07 %T x min, the “Sl (area under the fibrinolysis curve)” value ([3]; 0.06 mM) was 148.45 ± 47.41 %T x min and the “S—overall potential of clot formation and fibrinolysis (CLAUC)” value (“S—overall potential” for short) ([3]; 0.06 mM) was 516.05 ± 146.55 %T x min. For the same compound, the “Tc—clot stabilization time” value ([3]; 0.06 mM) was 296.57 ± 72.31 s, the “Tf—plasma clotting time” value ([3]; 0.06 mM) was 56.56 ± 8.57 s and the “Tl—fibrinolysis time” value ([3]; 0.06 mM) was 240.14 ± 65.11 s. The “Tt—thrombin time” value ([3]; 0.06 mM) was 16.86 ± 4.24 s, the “T—total time of the process of clot formation and fibrinolysis” value (from here on “T—total time”) ([3]; 0.06 mM) was 610.13 ± 145.50 s and the “Fmax—maximum clotting” value ([3]; 0.3 mM) was 68.99 ± 5.55 %T. The “Fvo—initial plasma clotting velocity” value ([3]; 0.3 mM) was 194.00 ± 48.64 %T/min, the “Lmax—maximum lysis” value ([3]; 0.3 mM) was 69.49 ± 5.34 %T and the “Lvo—initial clot fibrinolysis velocity” value ([3]; 0.3 mM) was 19.83 ± 6.57 %T/min. For the same compound, the “Sc—area under the curve” value ([3]; 0.3 mM) was 344.01 ± 74.34 %T x min, the “Sf—area under the clot formation curve” value ([3]; 0.3 mM) was 46.00 ± 9.83 %T x min and the “Sl (area under the fibrinolysis curve)” value ([3]; 0.3 mM) was 153.63 ± 43.80 %T x min. For the same compound, the “S—overall potential” value ([3]; 0.3 mM) was 543.64 ± 122.37 %T x min, the “Tc—clot stabilization time” value ([3]; 0.3 mM) was 309.14 ± 68.74 s and the “Tf—plasma clotting time” value ([3]; 0.3 mM) was 59.24 ± 16.26 s. For the same compound, the “Tl—fibrinolysis time” value ([3]; 0.3 mM) was 252.00 ± 73.00 s, the “Tt—thrombin time” value ([3]; 0.3 mM) was 17.54 ± 5.79 s and the “T—total time” value ([3]; 0.3 mM) was 637.93 ± 155.22 s. The “Fmax—maximum clotting” value ([3]; 0.6 mM) was 67.40 ± 9.57 %T, the “Fvo—initial plasma clotting velocity” value ([3]; 0.6 mM) was 214.14 ± 50.85 %T/min and the “Lmax—maximum lysis” value ([3]; 0.6 mM) was 68.19 ± 9.82 %T. For the same compound, the “Lvo—initial clot fibrinolysis velocity” value ([3]; 0.6 mM) was 20.37 ± 7.03 %T/min, the “Sc—area under the curve” value ([3]; 0.6 mM) was 344.82 ± 65.62 %T x min and the “Sf—area under the clot formation curve” value ([3]; 0.6 mM) was 44.34 ± 10.50 %T x min. For the same compound, the “Sl (area under the fibrinolysis curve)” value ([3]; 0.6 mM) was 143.77 ± 40.07 %T x min, the “S—overall potential” value ([3]; 0.6 mM) was 532.93 ± 111.10 %T x min and the “Tc—clot stabilization time” value ([3]; 0.6 mM) was 319.00 ± 63.63 s. For the same compound, the “Tf—plasma clotting time” value ([3]; 0.6 mM) was 55.80 ± 11.60 s, the “Tl—fibrinolysis time” value ([3]; 0.6 mM) was 247.43 ± 74.21 s and the “Tt—thrombin time” value ([3]; 0.6 mM) was 17.57 ± 3.74 s. For the same compound, the “T—total time” value ([3]; 0.6 mM) was 639.80 ± 148.09 s, the “Fmax—maximum clotting” value ([3]; 1.5 mM) was 61.57 ± 7.24 %T and the “Fvo—initial plasma clotting velocity” value ([3]; 1.5 mM) was 177.43 ± 34.91 %T/min. For the same compound, the “Lmax—maximum lysis” value ([3]; 1.5 mM) was 62.14 ± 6.63 %T, the “Lvo—initial clot fibrinolysis velocity” value ([3]; 1.5 mM) was 20.07 ± 6.59 %T/min and the “Sc—area under the curve” value ([3]; 1.5 mM) was 346.35 ± 92.32 %T x min. For the same compound, the “Sf—area under the clot formation curve” value ([3]; 1.5 mM) was 44.31 ± 12.08 %T x min, the “Sl (area under the fibrinolysis curve)” value ([3]; 1.5 mM) was 133.78 ± 47.19 %T x min and the “S—overall potential” value ([3]; 1.5 mM) was 524.43 ± 146.77 %T x min. For the same compound, the “Tc—clot stabilization time” value ([3]; 1.5 mM) was 351.43 ± 96.53 s, the “Tf—plasma clotting time” value ([3]; 1.5 mM) was 61.21 ± 14.65 s and the “Tl—fibrinolysis time” value ([3]; 1.5 mM) was 249.14 ± 80.94 s. For the same compound, the “Tt—thrombin time” value ([3]; 1.5 mM) was 24.37 ± 7.41 s and the “T—total time” value ([3]; 1.5 mM) was 686.16 ± 190.86 s.
